Source: ChEMBL document CHEMBL1201862, “PubChem BioAssay data set” (2004)
Values joined by “and” are separate entries in the source; they are usually repeats but may differ in a detail not shown here. Equal values may be shown once.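 Compound exposure: 48 hours, 5 concentrations, 96-well plates. GI50 is the concentration that inhibits growth by half.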 Active and inactive are the calls of the source. Rule as the data show it: active = GI50 up to about 1.1 µM and inactive = higher.

Tests used:
Experiment in all cases: growth of human tumour cells (NCI), 48 h
786-0 = tested on: 786-0
A498 = tested on: A498
A549 = tested on: A549
ACHN = tested on: ACHN
BT-549 = tested on: BT-549
CAKI-1 = tested on: CAKI-1
CCRF-CEM = tested on: CCRF-CEM
COLO 205 = tested on: COLO 205
DU-145 = tested on: DU-145
EKVX = tested on: EKVX
HCC 2998 = tested on: HCC 2998
HCT-116 = tested on: HCT-116
HCT-15 = tested on: HCT-15
HL-60 = tested on: HL-60
HOP-62 = tested on: HOP-62
HOP-92 = tested on: HOP-92
HT-29 = tested on: HT-29
Hs-578T = tested on: Hs-578T
IGROV-1 = tested on: IGROV-1
KM12 = tested on: KM12
LOX IMVI = tested on: LOX IMVI
M14 = tested on: M14
MCF7 = tested on: MCF7
MDA-MB-231 = tested on: MDA-MB-231
MDA-MB-435 = tested on: MDA-MB-435
MDA-N = tested on: MDA-N
Malme-3M = tested on: Malme-3M
NCI-H226 = tested on: NCI-H226
NCI-H23 = tested on: NCI-H23
NCI-H460 = tested on: NCI-H460
NCI-H522 = tested on: NCI-H522
NCI/ADR-RES = tested on: NCI/ADR-RES
OVCAR-3 = tested on: OVCAR-3
OVCAR-5 = tested on: OVCAR-5
OVCAR-8 = tested on: OVCAR-8
PC-3 = tested on: PC-3
RPMI-8226 = tested on: RPMI-8226
RXF 393 = tested on: RXF 393
SF-268 = tested on: SF-268
SF-295 = tested on: SF-295
SF-539 = tested on: SF-539
SK-MEL-28 = tested on: SK-MEL-28
SK-MEL-2 = tested on: SK-MEL-2
SK-MEL-5 = tested on: SK-MEL-5
SK-OV-3 = tested on: SK-OV-3
SN12C = tested on: SN12C
SNB-19 = tested on: SNB-19
SNB-75 = tested on: SNB-75
SR = tested on: SR
SW-620 = tested on: SW-620
T47D = tested on: T47D
TK-10 = tested on: TK-10
U-251 = tested on: U-251
UACC-257 = tested on: UACC-257
UO-31 = tested on: UO-31
K562 = tested on: K562
MOLT-4 = tested on: MOLT-4
OVCAR-4 = tested on: OVCAR-4
UACC-62 = tested on: UACC-62

Cc1ccc(/C=C2/N/C(=N\N=C/C(O)C(O)C(O)C(O)CO)NC2=O)cc1 (centres undefined)
GI50 (786-0): > 100 µM (inactive)
GI50 (A498): > 100 µM (inactive)
GI50 (A549): > 100 µM (inactive)
GI50 (ACHN): > 100 µM (inactive)
GI50 (BT-549): > 100 µM (inactive)
GI50 (CAKI-1): > 100 µM (inactive)
GI50 (CCRF-CEM): 95.3 µM (inactive)
GI50 (COLO 205): > 100 µM (inactive)
GI50 (DU-145): > 100 µM (inactive)
GI50 (EKVX): > 100 µM (inactive)
GI50 (HCC 2998): > 100 µM (inactive)
GI50 (HCT-116): > 100 µM (inactive)
GI50 (HCT-15): > 100 µM and 69.8 µM
GI50 (HL-60): > 100 µM (inactive)
GI50 (HOP-62): > 100 µM (inactive)
GI50 (HOP-92): > 100 µM (inactive)
GI50 (HT-29): > 100 µM (inactive)
GI50 (Hs-578T): > 100 µM (inactive)
GI50 (IGROV-1): > 100 µM (inactive)
GI50 (KM12): > 100 µM (inactive)
GI50 (LOX IMVI): > 100 µM (inactive)
GI50 (M14): > 100 µM (inactive)
GI50 (MCF7): > 100 µM (inactive)
GI50 (MDA-MB-231): > 100 µM (inactive)
GI50 (MDA-MB-435): > 100 µM (inactive)
GI50 (MDA-N): > 100 µM (inactive)
GI50 (Malme-3M): > 100 µM (inactive)
GI50 (NCI-H226): > 100 µM (inactive)
GI50 (NCI-H23): > 100 µM (inactive)
GI50 (NCI-H460): > 100 µM (inactive)
GI50 (NCI-H522): > 100 µM (inactive)
GI50 (NCI/ADR-RES): > 100 µM (inactive)
GI50 (OVCAR-3): > 100 µM (inactive)
GI50 (OVCAR-5): > 100 µM (inactive)
GI50 (OVCAR-8): > 100 µM (inactive)
GI50 (PC-3): > 100 µM (inactive)
GI50 (RPMI-8226): > 100 µM (inactive)
GI50 (RXF 393): > 100 µM (inactive)
GI50 (SF-268): > 100 µM (inactive)
GI50 (SF-295): > 100 µM (inactive)
GI50 (SF-539): > 100 µM (inactive)
GI50 (SK-MEL-28): > 100 µM (inactive)
GI50 (SK-MEL-2): > 100 µM (inactive)
GI50 (SK-MEL-5): > 100 µM (inactive)
GI50 (SK-OV-3): > 100 µM (inactive)
GI50 (SN12C): > 100 µM (inactive)
GI50 (SNB-19): > 100 µM (inactive)
GI50 (SNB-75): > 100 µM (inactive)
GI50 (SR): > 100 µM (inactive)
GI50 (SW-620): > 100 µM (inactive)
GI50 (T47D): > 100 µM (inactive) and 99.1 µM (inactive)
GI50 (TK-10): > 100 µM (inactive)
GI50 (U-251): > 100 µM (inactive)
GI50 (UACC-257): > 100 µM (inactive)
GI50 (UO-31): > 100 µM (inactive)

Cc1cc(S(=O)(=O)N=C2N(Cc3ccccc3)CCN2Cc2ccccc2)c(S)cc1Cl
GI50 (786-0): > 100 µM (inactive)
GI50 (A498): > 100 µM (inactive)
GI50 (A549): > 100 µM (inactive)
GI50 (ACHN): > 10 µM (inactive)
GI50 (BT-549): > 100 µM (inactive)
GI50 (CAKI-1): > 100 µM (inactive)
GI50 (CCRF-CEM): > 100 µM (inactive)
GI50 (COLO 205): > 100 µM (inactive)
GI50 (DU-145): > 100 µM (inactive)
GI50 (EKVX): > 100 µM (inactive)
GI50 (HCC 2998): > 100 µM (inactive)
GI50 (HCT-116): > 100 µM (inactive)
GI50 (HCT-15): > 100 µM
GI50 (HL-60): > 100 µM (inactive)
GI50 (HOP-62): > 100 µM (inactive)
GI50 (HOP-92): > 100 µM (inactive)
GI50 (HT-29): > 100 µM (inactive)
GI50 (Hs-578T): > 100 µM (inactive)
GI50 (IGROV-1): > 100 µM (inactive)
GI50 (K562): > 100 µM (inactive)
GI50 (KM12): > 100 µM (inactive)
GI50 (LOX IMVI): 70.8 µM (inactive)
GI50 (M14): > 100 µM (inactive)
GI50 (MCF7): > 100 µM (inactive)
GI50 (MDA-MB-231): > 100 µM (inactive)
GI50 (MDA-MB-435): > 100 µM (inactive)
GI50 (MDA-N): > 100 µM (inactive)
GI50 (MOLT-4): > 100 µM (inactive)
GI50 (Malme-3M): > 100 µM (inactive)
GI50 (NCI-H226): 85.5 µM (inactive)
GI50 (NCI-H23): > 100 µM (inactive)
GI50 (NCI-H460): 56.1 µM (inactive)
GI50 (NCI-H522): 40.6 µM (inactive)
GI50 (NCI/ADR-RES): > 100 µM (inactive)
GI50 (OVCAR-3): > 100 µM (inactive)
GI50 (OVCAR-4): > 100 µM (inactive)
GI50 (OVCAR-5): > 100 µM (inactive)
GI50 (OVCAR-8): > 100 µM (inactive)
GI50 (PC-3): 27.7 µM (inactive)
GI50 (RPMI-8226): > 100 µM (inactive)
GI50 (RXF 393): 78.3 µM (inactive)
GI50 (SF-268): 36 µM (inactive)
GI50 (SF-295): 48.9 µM (inactive)
GI50 (SF-539): > 100 µM (inactive)
GI50 (SK-MEL-28): > 100 µM (inactive)
GI50 (SK-MEL-5): > 100 µM (inactive)
GI50 (SK-OV-3): > 100 µM (inactive)
GI50 (SN12C): > 100 µM (inactive)
GI50 (SNB-19): > 100 µM (inactive)
GI50 (SNB-75): 69.8 µM (inactive)
GI50 (SR): 95.9 µM (inactive)
GI50 (SW-620): > 100 µM (inactive)
GI50 (T47D): 10.8 µM (inactive)
GI50 (TK-10): > 100 µM (inactive)
GI50 (U-251): 54.8 µM (inactive)
GI50 (UACC-257): > 100 µM (inactive)
GI50 (UACC-62): > 100 µM (inactive)
GI50 (UO-31): 17.7 µM (inactive)

O=C(Nn1c(-c2ccccc2)nc2ccccc2c1=O)c1ccc(O)cc1
GI50 (786-0): > 100 µM (inactive)
GI50 (A498): > 100 µM (inactive)
GI50 (A549): > 100 µM (inactive)
GI50 (ACHN): > 100 µM (inactive)
GI50 (BT-549): > 100 µM (inactive)
GI50 (CCRF-CEM): > 100 µM (inactive)
GI50 (COLO 205): > 100 µM (inactive)
GI50 (DU-145): > 100 µM (inactive)
GI50 (EKVX): 61 µM (inactive)
GI50 (HCC 2998): > 100 µM (inactive)
GI50 (HCT-116): > 100 µM (inactive)
GI50 (HCT-15): > 100 µM
GI50 (HL-60): > 100 µM (inactive)
GI50 (HOP-62): > 100 µM (inactive)
GI50 (HOP-92): > 100 µM (inactive)
GI50 (HT-29): > 100 µM (inactive)
GI50 (Hs-578T): > 100 µM (inactive)
GI50 (IGROV-1): > 100 µM (inactive)
GI50 (K562): > 100 µM (inactive)
GI50 (KM12): > 100 µM (inactive)
GI50 (M14): > 100 µM (inactive)
GI50 (MCF7): > 100 µM (inactive)
GI50 (MDA-MB-231): > 100 µM (inactive)
GI50 (MDA-MB-435): > 100 µM (inactive)
GI50 (MDA-N): > 100 µM (inactive)
GI50 (MOLT-4): > 100 µM (inactive)
GI50 (Malme-3M): > 100 µM (inactive)
GI50 (NCI-H226): > 100 µM (inactive)
GI50 (NCI-H23): > 100 µM (inactive)
GI50 (NCI-H460): > 100 µM (inactive)
GI50 (NCI-H522): > 100 µM (inactive)
GI50 (NCI/ADR-RES): > 100 µM (inactive)
GI50 (OVCAR-3): > 100 µM (inactive)
GI50 (OVCAR-4): > 100 µM (inactive)
GI50 (OVCAR-5): > 100 µM (inactive)
GI50 (OVCAR-8): > 100 µM (inactive)
GI50 (PC-3): > 100 µM (inactive)
GI50 (RPMI-8226): > 100 µM (inactive)
GI50 (RXF 393): > 100 µM (inactive)
GI50 (SF-268): > 100 µM (inactive)
GI50 (SF-295): > 100 µM (inactive)
GI50 (SF-539): > 100 µM (inactive)
GI50 (SK-MEL-28): > 100 µM (inactive)
GI50 (SK-MEL-5): > 100 µM (inactive)
GI50 (SK-OV-3): > 100 µM (inactive)
GI50 (SN12C): > 100 µM (inactive)
GI50 (SNB-19): > 100 µM (inactive)
GI50 (SNB-75): > 100 µM (inactive)
GI50 (SR): > 100 µM (inactive)
GI50 (SW-620): > 100 µM (inactive)
GI50 (T47D): > 100 µM (inactive)
GI50 (TK-10): > 100 µM (inactive)
GI50 (U-251): > 100 µM (inactive)
GI50 (UACC-257): > 100 µM (inactive)
GI50 (UACC-62): > 100 µM (inactive)
GI50 (UO-31): > 100 µM (inactive)
